According to ChEMBL document CHEMBL3593229, “Identification of a potent 5-phenyl-thiazol-2-ylamine-based inhibitor of FLT3 with activity against drug resistance-conferring point mutations” (Eur J Med Chem, 2015):

How the values were obtained:
[1] = target: T1, Receptor-type tyrosine-protein kinase FLT3 (Homo sapiens, UniProt P36888); assay: biochemical; assay type: cell-based, Sf9
T1 sequence (P36888 whole entry): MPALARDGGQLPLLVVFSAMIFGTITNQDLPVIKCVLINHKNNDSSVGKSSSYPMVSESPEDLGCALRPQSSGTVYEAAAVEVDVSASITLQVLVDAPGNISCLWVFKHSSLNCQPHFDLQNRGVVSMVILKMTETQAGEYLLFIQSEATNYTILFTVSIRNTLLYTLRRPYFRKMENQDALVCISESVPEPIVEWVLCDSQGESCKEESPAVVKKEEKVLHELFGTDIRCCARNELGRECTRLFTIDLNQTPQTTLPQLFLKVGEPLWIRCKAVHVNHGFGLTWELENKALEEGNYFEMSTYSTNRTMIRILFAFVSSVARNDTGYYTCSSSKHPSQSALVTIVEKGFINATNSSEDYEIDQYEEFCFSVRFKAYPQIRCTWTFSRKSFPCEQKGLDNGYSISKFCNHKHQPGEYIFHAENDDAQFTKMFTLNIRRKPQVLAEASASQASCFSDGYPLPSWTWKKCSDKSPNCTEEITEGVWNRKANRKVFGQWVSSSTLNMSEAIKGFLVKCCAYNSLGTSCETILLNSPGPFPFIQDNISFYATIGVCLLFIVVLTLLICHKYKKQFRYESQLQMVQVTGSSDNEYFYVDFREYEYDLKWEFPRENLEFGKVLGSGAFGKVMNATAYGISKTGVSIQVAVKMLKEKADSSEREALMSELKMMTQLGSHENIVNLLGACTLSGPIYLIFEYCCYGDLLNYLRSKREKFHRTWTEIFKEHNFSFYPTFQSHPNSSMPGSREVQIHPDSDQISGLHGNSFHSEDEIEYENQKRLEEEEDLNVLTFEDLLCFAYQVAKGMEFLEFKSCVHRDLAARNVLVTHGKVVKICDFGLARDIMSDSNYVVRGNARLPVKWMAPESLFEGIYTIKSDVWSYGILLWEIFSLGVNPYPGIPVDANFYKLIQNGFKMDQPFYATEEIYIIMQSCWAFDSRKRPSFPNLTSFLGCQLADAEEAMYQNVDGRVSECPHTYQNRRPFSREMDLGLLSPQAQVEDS
Description: Inhibition of wild type GST-tagged FLT3 kinase domain (Y567 to S993) (unknown origin) expressed in baculovirus infected insect Sf9 cells using Her2 peptide as substrate after 4 hrs by Kinase-Glo assay

[2] = target: Proto-oncogene tyrosine-protein kinase Src (Homo sapiens) (UniProt P12931); assay: Inhibition of human SRC at 0.1 uM relative to control
[3] = target: Proto-oncogene tyrosine-protein kinase receptor Ret (Homo sapiens) (UniProt P07949); assay: Inhibition of human RET at 0.1 uM relative to control
[4] = target: Tyrosine-protein kinase Lck (Homo sapiens) (UniProt P06239); assay: Inhibition of human LCK at 0.1 uM relative to control
[5] = target: Platelet-derived growth factor receptor beta (Homo sapiens) (UniProt P09619); assay: Inhibition of human PDGFRbeta at 0.1 uM relative to control
[6] = tested on: Proto-oncogene tyrosine-protein kinase receptor Ret (Homo sapiens), P07949 [Y791F]; assay: Inhibition of human RET Y791F mutant at 0.1 uM relative to control
[7] = target: Tyrosine-protein kinase Yes (Homo sapiens) (UniProt P07947); assay: Inhibition of human YES1 at 0.1 uM relative to control
[8] = target: Interleukin-1 receptor-associated kinase 4 (Homo sapiens) (UniProt Q9NWZ3); assay: Inhibition of human IRAK4 at 0.1 uM relative to control
[9] = target: Angiopoietin-1 receptor (Homo sapiens) (UniProt Q02763); assay: Inhibition of human TEK at 0.1 uM relative to control
[10] = tested on: Platelet-derived growth factor receptor alpha (Homo sapiens), P16234 [T674I]; assay: Inhibition of human PDGFRA T674I mutant at 0.1 uM relative to control
[11] = target: Tyrosine-protein kinase BTK (Homo sapiens) (UniProt Q06187); assay: Inhibition of human BTK at 0.1 uM relative to control
[12] = target: Vascular endothelial growth factor receptor 1 (Homo sapiens) (UniProt P17948); assay: Inhibition of human FLT1 at 0.1 uM relative to control
[13] = target: Tyrosine-protein kinase receptor TYRO3 (Homo sapiens) (UniProt Q06418); assay: Inhibition of human TYRO3 at 0.1 uM relative to control
[14] = target: Serine/threonine-protein kinase Nek1 (Homo sapiens) (UniProt Q96PY6); assay: Inhibition of human NEK1 at 0.1 uM relative to control
[15] = target: Tyrosine-protein kinase CSK (Homo sapiens) (UniProt P41240); assay: Inhibition of human CSK at 0.1 uM relative to control
[16] = tested on: RAF proto-oncogene serine/threonine-protein kinase (Homo sapiens), P04049 [Y340D,Y341D]; assay: Inhibition of human RAF1 Y340D/Y341D double mutant at 0.1 uM relative to control
[17] = tested on: Platelet-derived growth factor receptor alpha (Homo sapiens), P16234 [D842V]; assay: Inhibition of human PDGFRA D842V mutant at 0.1 uM relative to control
[18] = target: Inhibitor of nuclear factor kappa-B kinase subunit epsilon (Homo sapiens) (UniProt Q14164); assay: Inhibition of human IKKepsilon at 0.1 uM relative to control
[19] = target: Insulin-like growth factor 1 receptor (Homo sapiens) (UniProt P08069); assay: Inhibition of human IGF1R at 0.1 uM relative to control
[20] = target: Mitogen-activated protein kinase 14 (Homo sapiens) (UniProt Q16539); assay: Inhibition of human MAPK14 at 0.1 uM relative to control
[21] = target: Receptor tyrosine-protein kinase erbB-2 (Homo sapiens) (UniProt P04626); assay: Inhibition of human HER2 at 0.1 uM relative to control
[22] = target: RAC-alpha serine/threonine-protein kinase (Homo sapiens) (UniProt P31749); assay: Inhibition of human AKT1 at 0.1 uM relative to control
[23] = target: Ribosomal protein S6 kinase alpha-3 (Homo sapiens) (UniProt P51812); assay: Inhibition of human RSK2 at 0.1 uM relative to control
[24] = target: Receptor-type tyrosine-protein kinase FLT3 (Homo sapiens, UniProt P36888, F691L); assay: Inhibition of FLT3 ITD F691L mutant (unknown origin) phosphorylation expressed in HEK293T cells preincubated for 1 hr followed by FLT3 ligand addition for 5 mins by Western blot analysis; assay type: cell-based, HEK-293T
[25] = Plasma clearance in Sprague-Dawley rat at 2 mg/kg, iv; assay type: ADME, organism-based
[26] = Half life in ICR mouse at 10 mg/kg, po; assay type: ADME, organism-based; settings: in vivo
Mus musculus = assay: Toxicity in nude mouse allografted with mouse 32D cells expressing FLT3 ITD D835Y mutant at 10 mg/kg/day, po administered 5 days on/2 days off schedule for 4 weeks measured daily during compound dosing; assay type: organism-based; settings: in vivo
[27] = tested on: Receptor-type tyrosine-protein kinase FLT3 (Homo sapiens), P36888 [UNDEFINED MUTATION]; settings: MV4-11
Description: Inhibition of FLT3 ITD homozygous mutant in human MV4-11 cells assessed as cell growth inhibition after 72 hrs by MTS assay

Chain of RAF proto-oncogene serine/threonine-protein kinase (Homo sapiens), P04049 [Y340D,Y341D] (P04049 whole entry Y340D/Y341D): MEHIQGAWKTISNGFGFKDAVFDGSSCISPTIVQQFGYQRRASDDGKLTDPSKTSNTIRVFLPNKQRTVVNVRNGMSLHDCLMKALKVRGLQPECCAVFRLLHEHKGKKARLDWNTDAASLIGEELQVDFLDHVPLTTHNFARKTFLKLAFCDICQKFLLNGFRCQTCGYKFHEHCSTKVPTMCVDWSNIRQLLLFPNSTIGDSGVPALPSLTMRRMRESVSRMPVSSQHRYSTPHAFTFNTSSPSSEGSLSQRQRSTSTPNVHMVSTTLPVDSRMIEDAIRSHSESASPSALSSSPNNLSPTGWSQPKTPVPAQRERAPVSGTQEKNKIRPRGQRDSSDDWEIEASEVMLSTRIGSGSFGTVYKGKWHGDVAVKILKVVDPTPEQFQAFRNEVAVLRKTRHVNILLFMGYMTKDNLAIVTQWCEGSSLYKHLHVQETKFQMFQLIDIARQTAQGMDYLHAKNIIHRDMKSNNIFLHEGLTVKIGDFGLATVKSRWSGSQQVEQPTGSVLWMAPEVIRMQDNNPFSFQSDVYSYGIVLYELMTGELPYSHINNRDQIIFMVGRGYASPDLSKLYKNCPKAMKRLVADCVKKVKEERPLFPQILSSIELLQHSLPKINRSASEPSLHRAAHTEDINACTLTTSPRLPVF
Chain of Mitogen-activated protein kinase 14 (Homo sapiens) (Q16539 whole entry): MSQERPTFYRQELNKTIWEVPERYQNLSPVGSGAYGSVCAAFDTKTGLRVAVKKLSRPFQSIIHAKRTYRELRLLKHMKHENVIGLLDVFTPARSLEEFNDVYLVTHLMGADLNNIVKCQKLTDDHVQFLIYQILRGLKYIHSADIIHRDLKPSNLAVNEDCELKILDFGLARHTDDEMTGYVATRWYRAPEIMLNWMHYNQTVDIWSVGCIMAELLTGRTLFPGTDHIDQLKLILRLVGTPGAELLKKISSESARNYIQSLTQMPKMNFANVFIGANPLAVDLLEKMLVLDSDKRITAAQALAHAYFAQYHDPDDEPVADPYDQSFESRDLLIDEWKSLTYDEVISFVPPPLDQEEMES
Chain of RAC-alpha serine/threonine-protein kinase (Homo sapiens) (P31749 whole entry): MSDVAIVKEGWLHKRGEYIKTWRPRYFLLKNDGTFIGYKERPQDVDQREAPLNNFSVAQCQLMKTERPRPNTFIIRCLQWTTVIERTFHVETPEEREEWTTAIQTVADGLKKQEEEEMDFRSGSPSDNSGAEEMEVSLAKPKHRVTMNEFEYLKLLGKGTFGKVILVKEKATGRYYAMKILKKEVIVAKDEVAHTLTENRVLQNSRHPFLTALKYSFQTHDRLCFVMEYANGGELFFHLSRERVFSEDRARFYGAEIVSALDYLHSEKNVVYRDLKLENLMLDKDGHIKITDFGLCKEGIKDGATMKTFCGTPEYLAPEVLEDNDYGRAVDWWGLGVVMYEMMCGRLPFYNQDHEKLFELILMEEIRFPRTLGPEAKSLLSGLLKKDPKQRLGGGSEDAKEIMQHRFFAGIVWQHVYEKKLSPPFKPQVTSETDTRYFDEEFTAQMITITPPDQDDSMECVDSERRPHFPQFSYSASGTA
Chain of Tyrosine-protein kinase CSK (Homo sapiens) (P41240 2-450 limits assumed): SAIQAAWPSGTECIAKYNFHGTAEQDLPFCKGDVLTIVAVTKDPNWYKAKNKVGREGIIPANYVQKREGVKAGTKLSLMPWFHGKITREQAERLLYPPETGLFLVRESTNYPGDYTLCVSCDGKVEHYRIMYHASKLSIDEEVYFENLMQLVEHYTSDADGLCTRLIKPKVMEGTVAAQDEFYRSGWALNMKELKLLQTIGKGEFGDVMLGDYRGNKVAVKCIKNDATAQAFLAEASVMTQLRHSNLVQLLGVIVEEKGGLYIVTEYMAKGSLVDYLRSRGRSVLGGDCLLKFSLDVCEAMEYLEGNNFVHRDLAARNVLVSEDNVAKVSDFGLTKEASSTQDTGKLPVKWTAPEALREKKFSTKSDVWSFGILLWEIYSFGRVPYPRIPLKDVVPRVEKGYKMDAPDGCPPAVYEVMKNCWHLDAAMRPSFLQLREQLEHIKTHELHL
Chain of Proto-oncogene tyrosine-protein kinase Src (Homo sapiens) (P12931 2-536 limits assumed): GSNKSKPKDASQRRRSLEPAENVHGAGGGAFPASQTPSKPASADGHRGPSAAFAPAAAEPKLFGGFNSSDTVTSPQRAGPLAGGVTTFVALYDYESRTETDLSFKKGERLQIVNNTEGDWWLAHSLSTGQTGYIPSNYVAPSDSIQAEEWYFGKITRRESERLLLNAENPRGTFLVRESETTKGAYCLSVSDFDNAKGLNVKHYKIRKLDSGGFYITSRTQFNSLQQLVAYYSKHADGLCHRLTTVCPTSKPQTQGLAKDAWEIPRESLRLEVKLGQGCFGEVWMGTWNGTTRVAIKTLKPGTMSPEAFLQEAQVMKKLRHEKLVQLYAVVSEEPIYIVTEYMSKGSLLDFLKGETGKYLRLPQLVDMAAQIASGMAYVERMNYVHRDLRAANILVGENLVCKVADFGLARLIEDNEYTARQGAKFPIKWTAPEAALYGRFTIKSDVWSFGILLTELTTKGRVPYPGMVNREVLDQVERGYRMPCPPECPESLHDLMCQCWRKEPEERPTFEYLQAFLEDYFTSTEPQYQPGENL
Chain of Interleukin-1 receptor-associated kinase 4 (Homo sapiens) (Q9NWZ3 whole entry): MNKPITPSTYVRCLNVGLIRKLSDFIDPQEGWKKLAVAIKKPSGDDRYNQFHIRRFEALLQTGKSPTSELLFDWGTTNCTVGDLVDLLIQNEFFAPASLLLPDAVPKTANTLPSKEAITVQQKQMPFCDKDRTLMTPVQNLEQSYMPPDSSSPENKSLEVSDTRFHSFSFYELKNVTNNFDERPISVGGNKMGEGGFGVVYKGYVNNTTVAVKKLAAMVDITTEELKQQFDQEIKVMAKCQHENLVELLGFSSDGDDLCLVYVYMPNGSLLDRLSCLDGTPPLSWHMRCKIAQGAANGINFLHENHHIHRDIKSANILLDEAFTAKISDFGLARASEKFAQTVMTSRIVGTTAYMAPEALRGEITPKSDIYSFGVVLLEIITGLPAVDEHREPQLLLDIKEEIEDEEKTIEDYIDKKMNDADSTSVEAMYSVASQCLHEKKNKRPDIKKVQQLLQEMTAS
Chain of Tyrosine-protein kinase Yes (Homo sapiens) (P07947 2-543 limits assumed): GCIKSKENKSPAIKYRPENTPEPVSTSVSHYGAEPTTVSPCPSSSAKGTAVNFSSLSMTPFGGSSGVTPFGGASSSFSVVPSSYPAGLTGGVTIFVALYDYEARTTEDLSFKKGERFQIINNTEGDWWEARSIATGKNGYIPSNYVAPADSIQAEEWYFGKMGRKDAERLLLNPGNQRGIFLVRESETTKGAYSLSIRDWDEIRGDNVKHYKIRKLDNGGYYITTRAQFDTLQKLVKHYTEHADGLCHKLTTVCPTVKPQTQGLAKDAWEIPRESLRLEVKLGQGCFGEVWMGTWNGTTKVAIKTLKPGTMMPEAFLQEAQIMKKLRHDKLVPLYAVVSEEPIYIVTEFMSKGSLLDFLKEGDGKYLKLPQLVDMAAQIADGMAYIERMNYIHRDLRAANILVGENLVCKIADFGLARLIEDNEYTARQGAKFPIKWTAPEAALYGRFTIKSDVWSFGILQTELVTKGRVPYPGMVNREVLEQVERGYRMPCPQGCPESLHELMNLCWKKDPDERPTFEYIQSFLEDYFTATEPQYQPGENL
Chain of Proto-oncogene tyrosine-protein kinase receptor Ret (Homo sapiens), P07949 [Y791F] (P07949 whole entry Y791F): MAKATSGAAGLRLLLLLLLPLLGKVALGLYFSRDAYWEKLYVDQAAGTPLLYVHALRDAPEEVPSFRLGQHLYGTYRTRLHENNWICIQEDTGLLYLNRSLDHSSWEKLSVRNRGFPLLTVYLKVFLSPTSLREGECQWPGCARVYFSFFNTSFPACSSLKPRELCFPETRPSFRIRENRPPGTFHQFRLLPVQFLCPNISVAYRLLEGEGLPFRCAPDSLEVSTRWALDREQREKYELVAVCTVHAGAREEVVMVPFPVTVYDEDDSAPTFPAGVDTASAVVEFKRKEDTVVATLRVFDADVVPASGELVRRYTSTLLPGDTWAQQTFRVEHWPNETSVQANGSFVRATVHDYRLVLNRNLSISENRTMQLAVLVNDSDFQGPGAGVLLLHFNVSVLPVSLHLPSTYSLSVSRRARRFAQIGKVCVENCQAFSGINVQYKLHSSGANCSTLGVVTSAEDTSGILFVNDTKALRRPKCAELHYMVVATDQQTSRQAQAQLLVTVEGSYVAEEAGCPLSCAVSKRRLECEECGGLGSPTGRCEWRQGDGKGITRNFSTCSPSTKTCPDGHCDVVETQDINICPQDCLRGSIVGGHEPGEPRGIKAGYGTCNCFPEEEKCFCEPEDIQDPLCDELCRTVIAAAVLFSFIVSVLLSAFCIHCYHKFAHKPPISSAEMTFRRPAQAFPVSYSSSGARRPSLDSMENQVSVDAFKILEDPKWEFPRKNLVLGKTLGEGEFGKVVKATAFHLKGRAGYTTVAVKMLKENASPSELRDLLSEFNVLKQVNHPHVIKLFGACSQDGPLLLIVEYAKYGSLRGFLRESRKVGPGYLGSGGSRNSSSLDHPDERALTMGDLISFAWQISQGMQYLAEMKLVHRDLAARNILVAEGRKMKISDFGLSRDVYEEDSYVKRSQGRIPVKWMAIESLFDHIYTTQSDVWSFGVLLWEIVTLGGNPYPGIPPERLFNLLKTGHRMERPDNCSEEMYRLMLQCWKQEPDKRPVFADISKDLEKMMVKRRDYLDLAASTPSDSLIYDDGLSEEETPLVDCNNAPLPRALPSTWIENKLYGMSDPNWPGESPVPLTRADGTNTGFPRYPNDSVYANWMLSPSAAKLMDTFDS
Chain of Proto-oncogene tyrosine-protein kinase receptor Ret (Homo sapiens) (P07949 whole entry): as the sequence (P07949 whole entry Y791F) above, with F791Y counted along it

CCc1cc(NC(=O)Nc2ccc(-c3cnc(Nc4cc(N5CCN(CC)CC5)nc(C)n4)s3)cc2)no1
IC50 [1]: 38 nM | inhibition [2]: 93% | inhibition [3]: 95% | inhibition [4]: 92% | inhibition [5]: 91% | inhibition [6]: 86% | inhibition [7]: 72% | inhibition [8]: 61% | inhibition [9]: 61% | inhibition [10]: 46% | inhibition [11]: 46% | inhibition [12]: 44% | inhibition [13]: 28% | inhibition [14]: 23% | inhibition [15]: 23% | inhibition [16]: 21% | inhibition [17]: 21% | inhibition [18]: 18% | inhibition [19]: 16% | inhibition [20]: 10% | inhibition [21]: 0% | inhibition [22]: 0% | inhibition [23]: -1% | IC50 [24]: 10 nM | clearance [25]: 31.6 mL/min/kg | half-life [26]: 108 min | Activity (Mus musculus): Non-toxic | GI50 [27]: 1 nM
